# Experimental data published in patent US10953027B2, “Active agents and methods of their use for the treatment of metabolic disorders and nonalcoholic fatty liver disease” (Flagship Pioneering Innovations V, Inc., priority 2018, dated 2021).
# What was measured:
# [1] = Assay 1. Stability in Simulated Gastric Fluid (SGF); type: in vitro ADME; settings: 1 μM, 37° C., SGF pH 1.6 with pepsin
# Procedure: Assay 1. Stability of acylated active agents in Simulated Gastric Fluid (SGF). This assay was used to assess the stability of an acylated active agent in a stomach.
# Medium was prepared by dissolving 2 g of sodium chloride in 0.6 L of ultrapure water (MilliQ®, Millipore Sigma, Darmstadt, Germany). The pH was adjusted to 1.6 with 1N hydrochloric acid, and the volume was then adjusted to 1 L with purified water.
# 60 mg FaSSIF powder (Biorelevant™, London, UK) were dissolved in 500 mL buffer (above). Pepsin was added (0.1 mg/mL) (Millipore Sigma, Darmstadt, Germany), and the solution was stirred. The resulting SGF media were used fresh for each experiment.
# Test compounds were dissolved in DMSO stock to 1 mM. An aliquot of the DMSO stock solution was removed and diluted in the SGF Media in 15 mL falcon tubes to generate a compound concentration of 1 μM. A 1 mL aliquot was immediately removed and diluted once with 1 volume of acetonitrile for T0 timepoint. The mixture was sealed and mixed at 37° C. in an incubator. Aliquots (1 mL) were removed at regular intervals and immediately quenched by the addition of 1 volume of acetonitrile. The resulting samples were analyzed by LC/MS to determine degradation rates in SGF.
# [2] = Assay 2. Stability in Simulated Intestinal Fluid (SIF); type: in vitro ADME; settings: 1 μM, 37° C., SIF pH 6.7 with pancreatin
# Procedure: Assay 2. Stability of acylated active agents in Simulated Intestinal Fluid (SIF). This assay was used to assess the stability of an acylated active agent in a small intestine.
# Phosphate buffer was prepared by dissolving 0.42 g of sodium hydroxide pellets and 3.95 g of monobasic sodium phosphate monohydrate and 6.19 g of sodium chloride in ultrapure water (MilliQ®, Millipore Sigma, Darmstadt, Germany). The pH was adjusted to 6.7 using aq. HCl and aq. NaOH, as necessary, and the solution was diluted with ultrapure water to produce 1 L of the pH 6.7 buffer.
# 112 mg FaSSIF powder (Biorelevant™, London, UK) was dissolved in 50 mL of the pH 6.7 buffer. 2 to 3 mL of the resulting solution were then added to 500 mg pancreatin (Millipore Sigma, Darmstadt, Germany). The resulting mixture was agitated by finger tapping the vessel containing the mixture until milky suspension formed. At this time, the remainder of the 50 mL FaSSiF/pH 6.7 buffer solution was added. The resulting suspension was flipped upside down 10 times to produce SIF, which was used fresh.
# Test compounds were dissolved in DMSO stock to 1 mM. An aliquot of the DMSO stock solution was removed and diluted in the SIF media in 15 mL falcon tubes to produce a mixture with a tested compound concentration of 1 μM. A 1 mL aliquot was immediately removed and diluted once with 1 volume of acetonitrile for T0 timepoint. The mixture was sealed and agitated at 37° C. in an incubator. Aliquots (1 mL) were removed at regular intervals and immediately quenched by the addition of 1 volume of acetonitrile. The resulting samples were analyzed by LC/MS to determine degradation rates.
Structure (SMILES),Assay 1 (SGF) (% Remaining @ 1 hours) [1],Assay 2 (SIF) (% @ Remaining 4 hours) [2]
"CCC(=O)O[C@@H]1[C@@H](OC(=O)CC)[C@@H](OC(=O)CC)CO[C@H]1O [Compound 159, (3S,4S,5R,6R)-6-hydroxy-4,5-bis(propanoyloxy)oxan-3-yl Propanoate]",C (C: >75% of the tested compound remaining),B (B: 25-75% of the tested compound remaining)
"C=C1CC[C@H](OC(=O)C2OCC[C@@H](C)O2)C/C1=C/C=C1\CCC[C@]2(C)[C@@H]([C@H](C)CCCC(C)C)CC[C@@H]12 (stereo partly drawn) [Compound 69, [(1 S,3Z)-3-[(2E)-2-[(1R,3aS,7aR)-1-[(1R)-1,5-dimethylhexyl]-7a-methyl-2,3,3a,5,6,7-hexahydro-1H-inden-4-ylidene]ethylidene]-4-methylene-cyclohexyl] (4R)-4-methyl-1,3-dioxane-2-carboxylate]",C (C: >75% of the tested compound remaining),C (C: >75% of the tested compound remaining)
"CCCC(=O)Oc1ccc(/C=C/c2cc(OC(=O)CCC)cc(OC(=O)CCC)c2)cc1 [Compound 1, [4-[(E)-2-[3,5-di(butanoyloxy)phenyl]vinyl]phenyl] butanoate]",C (C: >75% of the tested compound remaining),B (B: 25-75% of the tested compound remaining)
"O=C(CCc1c[nH]c2ccccc12)O[C@@H]1[C@H](OC(=O)CCc2c[nH]c3ccccc23)COC(O)[C@@H]1OC(=O)CCc1c[nH]c2ccccc12 (stereo partly drawn) [Compound 167, (3R,4R,5R)-6-hydroxy-4,5-bis({[3-(1H-indol-3-yl)propanoyl]oxy})oxan-3-yl 3-(1H-indol-3-yl)propanoate]",C (C: >75% of the tested compound remaining),A (A: <25% of the tested compound remaining)
"CCCC(=O)Oc1ccc(/N=N/c2ccc(OC(=O)CCC)c(C(=O)O)c2)cc1C(=O)O [Compound 32, 2-butanoyloxy-5-[(E)-(4-butanoyloxy-3-carboxy-phenyl)azo]benzoic Acid]",A (A: <25% of the tested compound remaining),A (A: <25% of the tested compound remaining)
"CCCC(=O)O[C@H](C)CCOC(=O)Oc1ccc(/C=C/c2cc(OC(=O)OCC[C@@H](C)OC(=O)CCC)cc(OC(=O)OCC[C@@H](C)OC(=O)CCC)c2)cc1 [Compound 75, (2R,2′R)-((((5-((E)-4-((((R)-3-(butyryloxy)butoxy)carbonyl)oxy)styryl)-1,3-phenylene)bis(oxy))bis(carbonyl))bis(oxy))bis(butane-4,2-diyl) dibutyrate]",C (C: >75% of the tested compound remaining),B (B: 25-75% of the tested compound remaining)
"CCCC(=O)O[C@H]1[C@@H](Oc2ccc(N)cc2C(=O)O)OC[C@@H](OC(=O)CCC)[C@H]1OC(=O)CCC [Compound 41, 5-amino-2-(((2R,3R,4R,5R)-3,4,5-tris(butyryloxy)tetrahydro-2H-pyran-2-yl)oxy)benzoic Acid]",C (C: >75% of the tested compound remaining),C (C: >75% of the tested compound remaining)
"CCCC(=O)Oc1ccc(N)cc1C(=O)O.Cl [Compound 31, 5-amino-2-butanoyloxy-benzoic Acid Hydrochloride]",C (C: >75% of the tested compound remaining),C (C: >75% of the tested compound remaining)
"C[C@@H]1CCOC(C)(C(=O)Oc2ccc(/C=C/c3cc(OC(=O)C4(C)OCC[C@@H](C)O4)cc(OC(=O)C4(C)OCC[C@@H](C)O4)c3)cc2)O1 (stereo partly drawn) [Compound 65, [4-[(E)-2-[3,5-bis[[(4R)-2,4-dimethyl-1,3-dioxane-2-carbonyl]oxy]phenyl]vinyl]phenyl] (4R)-2,4-dimethyl-1,3-dioxane-2-carboxylate]",C (C: >75% of the tested compound remaining),C (C: >75% of the tested compound remaining)
"O=C(CCc1c[nH]c2ccccc12)Oc1cc(C(=O)O)cc(OC(=O)CCc2c[nH]c3ccccc23)c1OC(=O)CCc1c[nH]c2ccccc12 [Compound 240, 3,4,5-tris({[3-(1H-indol-3-yl)propanoyl]oxy})benzoic Acid]",A (A: <25% of the tested compound remaining),C (C: >75% of the tested compound remaining)
"C[C@@H]1O[C@H](OC(=O)CCc2c[nH]c3ccccc23)[C@@H](OC(=O)CCc2c[nH]c3ccccc23)[C@H](OC(=O)CCc2c[nH]c3ccccc23)[C@@H]1OC(=O)CCc1c[nH]c2ccccc12 [Compound 103, (2R,3S,4R,5R,6S)-3,4,5-tris({[3-(1H-indol-3-yl)propanoyl]oxy})-6-methyloxan-2-yl 3-(1H-indol-3-yl)propanoate]",B (B: 25-75% of the tested compound remaining),A (A: <25% of the tested compound remaining)
"CCC(=O)O[C@@H]1[C@@H](OC(=O)CC)[C@H](OC(=O)CC)CO[C@H]1O [Compound 161, (2R,3R,4S,5R)-2-hydroxy-4,5-bis(propanoyloxy)oxan-3-yl Propanoate]",C (C: >75% of the tested compound remaining),A (A: <25% of the tested compound remaining)
"CCCC(=O)Oc1cc(OC(=O)CCC)c2c(=O)c(OC(=O)CCC)c(-c3cc(OC(=O)CCC)c(OC(=O)CCC)c(OC(=O)CCC)c3)oc2c1 [Compound 200, 3,5-bis(butanoyloxy)-4-oxo-2-[3,4,5-tris(butanoyloxy)phenyl]-4H-chromen-7-yl Butanoate]",C (C: >75% of the tested compound remaining),C (C: >75% of the tested compound remaining)
"CC(=O)Oc1cc(C(=O)O)cc(OC(C)=O)c1OC(C)=O [Compound 44, 3,4,5-triacetoxybenzoic Acid]",C (C: >75% of the tested compound remaining),B (B: 25-75% of the tested compound remaining)
"CCCC(=O)O[C@@H]1[C@@H](OC(=O)CCC)[C@@H](Oc2ccc(N)cc2C(=O)O)OC[C@H]1OC(=O)CCC [Compound 33, 5-amino-2-[(2R,3R,4S,5R)-3,4,5-tri(butanoyloxy)tetrahydropyran-2-yl]oxy-benzoic Acid]",C (C: >75% of the tested compound remaining),C (C: >75% of the tested compound remaining)
"CCC(=O)O[C@H](C)CCOC(=O)Oc1ccc(/C=C/c2cc(OC(=O)OCC[C@@H](C)OC(=O)CC)cc(OC(=O)OCC[C@@H](C)OC(=O)CC)c2)cc1 [Compound 77, (2R,2′R)-((((5-((E)-4-((((R)-3-(propionyloxy)butoxy)carbonyl)oxy)styryl)-1,3-phenylene)bis(oxy))bis(carbonyl))bis(oxy))bis(butane-4,2-diyl) dipropionate]",B (B: 25-75% of the tested compound remaining),A (A: <25% of the tested compound remaining)
"CCC(=O)Oc1ccc2c(c1)oc(=O)c1cc(OC(=O)CC)c(OC(=O)CC)cc12 [Compound 242, [6-oxo-8,9-di(propanoyloxy)benzo[c]chromen-3-yl] propanoate]",C (C: >75% of the tested compound remaining),A (A: <25% of the tested compound remaining)
